{"source": "patent US20250073209A1", "about": "“COVALENT TARGETING OF RhoA FOR CANCER THERAPY” (The University of Hong Kong, priority 2023, published 2025)", "key": {"Rac1": {"target": "Rac1 (Homo sapiens, UniProt P63000)", "test": "Gel-based competitive ABPP, second screening on Rac1", "type": "binding", "protocol": "Recombinant human RhoA (0.1 μg; ab101594) was pretreated with cysteine-reactive compounds or DMSO for 1 hour at room temperature, followed by incubation with iodoacetamide-rhodamine (IA-Rh; 1 μM) for 1 hour at room temperature. The reaction was then quenched by boiling in sampling buffer. Samples were subjected to SDS-PAGE to separate proteins bands. In-gel fluorescence intensity was measured with a Chemidoc using setting for Rhodamine. Gel was subsequently stained with silver stain (Pierce) for visualization of protein content and covalent modification. Band intensity was quantified using ImageJ.\nCL16 was identified for its strong and specific binding with RhoA in covalent ligand screening experiment by ABPP. ABPP is known as a powerful platform for covalent ligand screening, particularly for the identification of lead compounds targeting new hotspots for therapy. Competitive gel-based activity-based protein profiling (ABPP) experiment was performed on purified RhoA protein for screening its interactions with a library of cysteine-reactive covalent ligands with acrylamide or chloroacetamide warheads. RhoA protein for the first screening and on Rac1 and Cdc42 for the second screening to identify lead compounds with specific binding onto RhoA Cys16. […] The reaction mixture was then resolved by SDS-PAGE and in-gel fluorescence was imaged (FIG. 1A). […]"}, "HT29 cells": {"tested_on": "HT29 cells", "test": "Wound healing assay", "type": "cell-based, human", "protocol": "For wound healing assay, HT29 cells were seeded in 90% confluency, a wound was scratched using a P-20 tip the next day. Cell debris was washed with PBS then aspirated. Then, complete DMEM medium with CL16 or Rhosin with corresponding concentration was added to the cells. Wound closure was recorded every 24 hours under light microscope with 10× objective and measurement of wound area was made by ImageJ.\nAs discussed above, overexpression/hyperactivity of RhoA associated with poor prognosis and aggressive behaviors of CRCs (FIG. 8A). Thus, the anti-cancer and anti-metastatic properties of CL16 in CRCs were explored. First, it was confirmed that genetic knockdown of RhoA by siRNA slowed down colony formation and migration of CRCs by using staining (data not shown) and wound healing assay (FIG. 4A). MTT assay was used to determine cell viability of CRCs and normal colon fibroblast CCD-18Co cells treated with CL16 for 48 h (n=3 different biological replicates/group). A much lower expression level of RhoA in normal colon fibroblast CCD-18Co cells was also determined, as compared to CRCs, by western blotting (data not shown). […] HT29 cells were transfected with siRNA (5 μM) using Dharmafect1 for 48 hours, and protein expressions were then investigated by immunoblotting."}, "RhoA WT": {"target": "T1, RhoA WT (Homo sapiens, UniProt P61586)", "T1 construct": "endogenous in cells; host or cells: HT29", "T1 sequence (P61586 whole entry, the tested form may be a part)": "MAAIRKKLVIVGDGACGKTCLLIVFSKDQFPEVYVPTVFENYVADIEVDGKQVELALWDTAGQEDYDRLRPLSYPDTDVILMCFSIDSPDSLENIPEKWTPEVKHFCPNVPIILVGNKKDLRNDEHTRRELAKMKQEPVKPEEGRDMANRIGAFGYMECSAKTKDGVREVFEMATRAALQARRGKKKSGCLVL", "test": "RhoA-GTP rhotekin pull-down in HT29 cells expressing RhoA WT", "type": "cell-based", "conditions": "24 h", "protocol": "(§1) RhoA Pull-Down Activation Assay Biochem Kit (#BK036) was purchased from Cytoskeleton. According to the manufacturer's protocol, total cell lysate (0.5 mg/mL; 300 μL) was added to 7.5 μL of Rhotekin-Rho Binding Domain beads in 0.6 mL tubes. The solution mixture was incubated at 4° C. on an end-to-end rotator for 1 hour. Beads were washed with 500 μL of washing buffer once, then centrifuged at 5000g for 3 min and the supernatant was discarded. RhoA-GTP was then eluted in 2× laemmli buffer and resolved in 10% SDS-PAGE.\nThe effects of CL16 in HT29 cells expressing RhoA WT protein and HT29 cells with RhoA C16 Å knock-in by CRISPR-Cas9 were investigated, respectively, to validate the molecular mechanism of RhoA inhibition and anti-cancer properties from CL16. […] HT29 cells expressing RhoA WT or C16 Å protein were incubated with solvent vehicle, CL16 or Rhosin in complete medium for 24 h. The cells were then washed, lysed, subjected to rhotekin pull-down and immunoblotted. […] Wound healing assay on HT29 cells expressing RhoA WT or C16 Å protein were incubated with solvent vehicle, CL16 or Rhosin in complete medium for 48 h (FIGS. 19A and 19B)."}, "SL4 cells": {"tested_on": "SL4 cells", "test": "MTT assay on mouse CRC cells SL4", "type": "cell-based", "conditions": "complete medium 48 h", "protocol": "FIG. 13A is a graph showing the cell viability, which was examined by MTT assay. SL4 cells were treated with solvent vehicle or CL16 in complete medium for 48 h.\nAntitumor effects of CL16 in an immunocompetent, orthotopic mouse CRC model, which was established by the inoculation of mouse CRC cells, SL4, intracecally were examined (FIG. 20). […] Immunohistochemistry staining of CD3, CD4, CD8, Ki67 was conducted, with cleaved caspase-3 and VEGFR2 on tumor tissues from the vehicle- or CL16-treated mice."}, "RhoA": {"target": "RhoA (Homo sapiens, UniProt P61586)", "sequence (P61586 whole entry)": "as the sequence (P61586 whole entry, the tested form may be a part) above", "test": "RhoA-GTP rhotekin pull-down in HT29 cells, complete medium", "type": "cell-based", "parameters": "endogenous in cells; host or cells: HCT116, HT29", "conditions": "HT29, complete medium 24 h", "protocol": "as §1\nGTP loading onto RhoA is critical for the protein activation and mediating downstream signals. In view of the inhibitions of GDP-to-GTP exchange of RhoA by CL16 in vitro as discussed above, effects of CL16 on RhoA biology in colorectal cancer cells were examined. In the serum starvation-re-stimulation experiment, HCT116 cells were grown in serum-free medium with CL16, Rhosin or solvent control for 24 h, followed by stimulation with 10% FBS for 10 min. The cells were then lysed and the RhoA activity was assayed by the level of RhoA-GTP, which is the active form of RhoA. […] HT29 cells were incubated with solvent vehicle, CL16 or Rhosin in complete medium for 24 h. […] Confocal fluorescence images from HCT116 and HT29 cells expressing FRET RhoA-biosensor in the serum starvation-restimulation experiment were taken."}}}
{"smiles": "O=C(CCl)N1N=C(c2cc3ccccc3o2)CC1c1ccco1", "note": "(centres unmarked) [CL16]", "values": [{"measurement": "binding with Rac1", "setting": "Rac1", "result": "no observable binding"}, {"measurement": "cell migration", "setting": "HT29 cells", "result": "good efficacy in reducing HT29 cell migration and invasion"}, {"measurement": "active RhoA-GTP level", "setting": "RhoA WT", "result": "significant decrease in the active RhoA-GTP level"}, {"measurement": "viability of SL4", "setting": "SL4 cells", "result": "significantly decreased the viability"}, {"measurement": "RhoA activity (RhoA-GTP)", "setting": "RhoA", "result": "specific inhibition of RhoA activity"}]}
